# Measurements published in patent US7456271B2, “Glutamate 2,3-aminomutases and methods of use thereof” (Wisconsin Alumni Research Foundation, priority 2005, dated 2008).
# Where two headings read alike, the source gives them in different places.
# How the values were obtained:
# [1] = biological target: T1, C. difficile Glutamate 2,3-aminomutase (Clostridioides difficile, UniProt Q185C5, V264I); format: biochemical, Clostridium difficile; conditions: for Keq: 24° C.
# T1 construct: made in house; host or cells: E. coli BL21(DE3) CodonPlus RILP, pET23a(+)
# Protocol: Measurement of the Equilibrium Constant for Conversion of L-Glutamate into β-Glutamate Catalyzed by Glutamate 2,3-aminomutase. Assays were conducted as previously described (see activity measurements above) except at 24° C. […] Initial enzyme concentrations were either 0.75 μM or 0.15 μM. After approximately 4 hours at 24° C., an additional aliquot of enzyme was added to make the final enzyme concentration either 1.5 μM or 0.3 μM, and the reaction was allowed to proceed for an additional 16 hours at 24° C. The reaction was stopped with 0.55 N perchloric acid, and the amino acids were derivatized with PITC as previously described. Following HPLC separation of the PITC derivatized L-glutamate and β-glutamate, the simple ratio of the peak areas of the two compounds was calculated based on the equivalent extinction coefficient of the two compounds (20).
# [2] = biological target: T1, C. difficile Glutamate 2,3-aminomutase; format: biochemical, Clostridium difficile; conditions: for rate of reaction to the other isomer: 20 mM substrate; for Specific Activity: substrate 20 mM
# Protocol: Glutamate 2,3-aminomutase Activity Measurements. Enzyme assays were conducted in an anaerobic chamber (Coy, Grass Lake, Mich.) at 37° C. […] At various time intervals (0-3 min), 45 μl of reaction mix was added to 15 μl of 2N perchloric acid to stop the reaction. Samples were centrifuged at 14,000×g for 10 min. The supernatant fluids were treated with PITC according to the method of Heinrikson and Meredith (20). Samples were dissolved in 100 μl of coupling buffer, concentrated to dryness by vacuum centrifugation, redissolved in 400 μl coupling buffer plus 20 μl of PITC, allowed to react for 30 min at room temperature, concentrated to dryness as above, and dissolved in either 0.5 or 1.0 ml water prior to injection (50 or 100 μl). The PITC derivative of L-glutamate was separated from the β-glutamate derivative by HPLC chromatography (20) using a C18 reverse phase column (Phenomenex Gemini 5μ, 4.6 mm×25 cm, #G-4435-E0), flow rate 1 ml/min, room temperature. The PITC-amino acids were separated with a linear gradient composed of 0.05 M ammonium acetate in water (buffer A) and 0.1 M ammonium acetate in 44% water, 46% acetonitrile, and 10% methanol (buffer B). The gradient established was 0-10% Buffer B in 20 min, 10-100% Buffer B in 10 min. […] Concentrations of L-glutamate or β-glutamate were measured using an amino acid standard solution (Pierce Chemical Co., #20088). For enzyme activity measurements at selected time points, the peak area of either L-glutamate or β-glutamate was divided by the total peak area (L-glutamate+β-glutamate) and multiplied by the starting concentration of either L-glutamate or β-glutamate to obtain molar concentrations. Enzyme kinetic parameters were determined by varying the concentration of L-glutamate (0.6-20 mM). Two separate analyses were conducted at two concentrations of enzyme (0.75 and 0.15 μM—subunit) with remaining conditions as stated above. Initial velocities were measured and used to calculate kinetic parameters (Vmax and Km) by the nonlinear least squares curve fitting method of Cleland (25).
smiles,measurement,setting,value
"NC(CC(=O)O)CC(=O)O [β-Glutamate, β-glutamate]",Keq,"[1]; [β-Glutamate] start 0.6 mM, [Enzyme] 0.30 μM (subunit)",15.6
same,Keq,"[1]; [β-Glutamate] start 0.6 mM, [Enzyme] 1.5 μM (subunit)",15.3
same,Keq,"[1]; [β-Glutamate] start 1.4 mM, [Enzyme] 0.30 μM (subunit)",15.6
same,Keq,"[1]; [β-Glutamate] start 1.4 mM, [Enzyme] 1.5 μM (subunit)",15.8
same,Keq,"[1]; [β-Glutamate] start 3.1 mM, [Enzyme] 0.30 μM (subunit)",16.2
same,Keq,"[1]; [β-Glutamate] start 3.1 mM, [Enzyme] 1.5 μM (subunit)",16.3
same,Keq,"[1]; [β-Glutamate] start 6.2 mM, [Enzyme] 0.30 μM (subunit)",15.7
same,Keq,"[1]; [β-Glutamate] start 6.2 mM, [Enzyme] 1.5 μM (subunit)",16.4
same,Keq,"[1]; [β-Glutamate] start 12.3 mM, [Enzyme] 0.30 μM (subunit)",16.6
same,Keq,"[1]; [β-Glutamate] start 12.3 mM, [Enzyme] 1.5 μM (subunit)",16.4
same,Keq,"[1]; [β-Glutamate] start 22.9 mM, [Enzyme] 1.5 μM (subunit)",15.9
same,Keq,"[1]; [β-Glutamate] start 24.3 mM, [Enzyme] 0.30 μM (subunit)",16.1
same,equilibrium ratio of β-Glu to L-glutamate,[1]; same end point from either substrate,approximately 16
same,rate of reaction to the other isomer,[2],2.3 μmoles min^−1· (mg protein)^−1
same,Specific Activity,"[2]; SAM +, Dithionite +, 37° C.",2.3 μmoles · min^−1 · mg^−1 Protein
"N[C@@H](CCC(=O)O)C(=O)O [L-Glutamate, L-glutamate]",Keq,"[1]; [L-Glutamate] start 0.6 mM, [Enzyme] 1.5 μM (subunit)",14.2
same,Keq,"[1]; [L-Glutamate] start 0.8 mM, [Enzyme] 0.30 μM (subunit)",14.8
same,Keq,"[1]; [L-Glutamate] start 1.4 mM, [Enzyme] 1.5 μM (subunit)",15.2
same,Keq,"[1]; [L-Glutamate] start 1.6 mM, [Enzyme] 0.30 μM (subunit)",15.7
same,Keq,"[1]; [L-Glutamate] start 3.1 mM, [Enzyme] 1.5 μM (subunit)",16.0
same,Keq,"[1]; [L-Glutamate] start 3.2 mM, [Enzyme] 0.30 μM (subunit)",15.9
same,Keq,"[1]; [L-Glutamate] start 6.4 mM, [Enzyme] 0.30 μM (subunit)",15.9
same,Keq,"[1]; [L-Glutamate] start 6.6 mM, [Enzyme] 1.5 μM (subunit)",15.6
same,Keq,"[1]; [L-Glutamate] start 12.4 mM, [Enzyme] 1.5 μM (subunit)",15.6
same,Keq,"[1]; [L-Glutamate] start 12.9 mM, [Enzyme] 0.30 μM (subunit)",16.3
same,Keq,"[1]; [L-Glutamate] start 22.1 mM, [Enzyme] 0.30 μM (subunit)",15.5
same,Keq,"[1]; [L-Glutamate] start 22.9 mM, [Enzyme] 1.5 μM (subunit)",15.3
same,rate of reaction to the other isomer,[2],5.9 μmoles min^−1· (mg protein)^−1
same,maximum velocity,"[2]; 37° C., forward direction",7 μmoles of β-glutamate min^−1· (mg protein)^−1
same,Vmax,"[2]; Assay 1, 37° C.",7.5 ± 0.18 μmoles · β-Glutamate min^−1 (mg protein)^−1
same,kcat,"[2]; Assay 1, 37° C.",6.2 s⁻¹
same,Km,"[2]; Assay 1, 37° C., read-out: Km (L-Glutamate)",2200 ± 160 µM
same,Vmax,"[2]; Assay 2, 37° C.",7.3 ± 0.19 μmoles · β-Glutamate min^−1 (mg protein)^−1
same,kcat,"[2]; Assay 2, 37° C.",6.0 s⁻¹
same,Km,"[2]; Assay 2, 37° C., read-out: Km (L-Glutamate)",2300 ± 180 µM
same,kcat,[2]; conditions of Table 3,6 s⁻¹
same,Km,"[2]; forward direction, conditions of Table 3, read-out: Michaelis constant (Km)",2000 µM
same,Specific Activity,"[2]; SAM +, Dithionite +, 37° C.",5.9 μmoles · min^−1 · mg^−1 Protein
same,Specific Activity,"[2]; SAM +, Dithionite −, 37° C.",0.16 μmoles · min^−1 · mg^−1 Protein
same,Specific Activity,"[2]; SAM −, Dithionite +, 37° C.",<0.01 μmoles · min^−1 · mg^−1 Protein
"O=S([O-])S(=O)[O-].[Na+].[Na+] [dithionite, sodium dithionite, reference compound]",effect of excess on enzyme activity,"[2]; excess, progressive loss of activity over time at >70 μM (FIG. 3)",inhibitory
"NCCCC[C@H](N)C(=O)O [L-lysine, reference compound]","conversion to β-lysine by glutamate 2,3-aminomutase",[2]; substrate specificity,does not catalyze
